Consider 17 molecules from patent US20250145594A1, “MODULATORS OF THE INTEGRATED STRESS PATHWAY” (Calico Life Sciences LLC, priority 2020, published 2025).

Each structure is given as a SMILES string. Some results are limits rather than exact numbers.

The subject of the assay is ATF4 luciferase reporter in HEK293T cells. As to the kind of experiment: ATF4-Luc assay (in vitro model of VWMD). The class given is cell-based, human. As to conditions: Homo sapiens, HEK-293T, 7 h, HEK293T cells carrying the ATF4 luciferase reporter, 1 μg/mL tunicamycin, One Glo luminescence. The essentials: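 Tunicamycin (1 μg/mL) stress with co-added compound for 7 hours in HEK293T cells stably carrying an ATF4 5′-UTR–luciferase reporter. EC50 values come from the luminescent signal (One Glo).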
(In general: In a reporter assay the amount or activity of a reporter protein is the signal.)
A word on the EC50: it is the concentration giving half of the maximal effect. In the case of `O=C(NC12CC(n3cc(C(=O)N4CCC(F)(F)C4)cn3)(C1)C2)[C@H]1C[C@@H](O)c2cc(Cl)ccc2O1` [Compound 384, (2R,4R)-6-chloro-N-{3-[4-(3,3-difluoropyrrolidine-1-carbonyl)-1H-pyrazol-1-yl]bicyclo[1.1.1]pentan-1-yl}-4-hydroxy-3,4-dihydro-2H-1-benzopyran-2-carboxamide], the EC50 is 250 to 500 nM.
The figure for `O=C(NC12CC(n3cc(C(=O)N4CC[C@@H](OC(F)F)C4)cn3)(C1)C2)[C@H]1C[C@@H](O)c2cc(Cl)ccc2O1` [Compound 399, (2R,4R)-6-chloro-N-(3-{4-[(3R)-3-(difluoromethoxy)pyrrolidine-1-carbonyl]-1H-pyrazol-1-yl}bicyclo[1.1.1]pentan-1-yl)-4-hydroxy-3,4-dihydro-2H-1-benzopyran-2-carboxamide] is 250 to 500 nM; for `O=C(COc1ccc(Cl)c(F)c1)NC12CC(n3cc(OC[C@H]4C[C@@H](OC(F)(F)F)C4)cn3)(C1)C2` [Compound 612, 2-(4-chloro-3-fluorophenoxy)-N-[3-(4-{[(1s,3s)-3-(trifluoromethoxy)cyclobutyl]methoxy}-1H-pyrazol-1-yl)bicyclo[1.1.1]pentan-1-yl]acetamide] it is under 10 nM; for `O=C(N[C@H]1C[C@H]2O[C@@H]1C[C@@H]2c1nnc([C@H]2C[C@@H](OC(F)(F)F)C2)o1)[C@@H]1C[C@H](O)c2cc(Cl)ccc2O1` (mixture of isomers) [Compound 186, (2S,4S)-6-chloro-4-hydroxy-N-[(1RS,2SR,4RS,5SR)-5-{5-[cis-3-(trifluoromethoxy)cyclobutyl]-1,3,4-oxadiazol-2-yl}-7-oxabicyclo[2.2.1]heptan-2-yl]-3,4-dihydro-2H-1-benzopyran-2-carboxamide] it is 10 to 50 nM.
For `O=C(NC12CC(n3cc(C(=O)N4CC(COC(F)F)C4)cn3)(C1)C2)[C@H]1C[C@@H](O)c2cc(Cl)ccc2O1` [Compound 348, (2R,4R)-6-chloro-N-[3-(4-{3-[(difluoromethoxy)methyl]azetidine-1-carbonyl}-1H-pyrazol-1-yl)bicyclo[1.1.1]pentan-1-yl]-4-hydroxy-3,4-dihydro-2H-1-benzopyran-2-carboxamide], the EC50 is 50 to 250 nM.
The figure for `O=C(NC12CC(n3cc(COCCOC(F)(F)F)nn3)(C1)C2)[C@H]1C[C@@H](O)c2cc(Cl)ccc2O1` [Compound 522, (2R,4R)-6-chloro-4-hydroxy-N-[3-(4-{[2-(trifluoromethoxy)ethoxy]methyl}-1H-1,2,3-triazol-1-yl)bicyclo[1.1.1]pentan-1-yl]-3,4-dihydro-2H-1-benzopyran-2-carboxamide] is under 10 nM; for `O=C(NC12CC(n3cc(C(=O)N4CC[C@@H](COC(F)(F)F)C4)cn3)(C1)C2)[C@H]1C[C@@H](O)c2cc(Cl)ccc2O1` [Compound 397, (2R,4R)-6-chloro-4-hydroxy-N-[3-(4-{(3R)-3-[(trifluoromethoxy)methyl]pyrrolidine-1-carbonyl}-1H-pyrazol-1-yl)bicyclo[1.1.1]pentan-1-yl]-3,4-dihydro-2H-1-benzopyran-2-carboxamide] it is 50 to 250 nM.
As for `O=C(NC12CC(n3cc(-c4ccc(OC(F)(F)F)nc4)cn3)(C1)C2)[C@@H]1C[C@@H](O)c2cc(Cl)ccc2O1` [Compound 351, (2S,4R)-6-chloro-4-hydroxy-N-(3-{4-[6-(trifluoromethoxy)pyridin-3-yl]-1H-pyrazol-1-yl}bicyclo[1.1.1]pentan-1-yl)-3,4-dihydro-2H-1-benzopyran-2-carboxamide], the EC50 is under 10 nM.
For `O=C(NC12CC(n3cc(-c4ccc(C(F)(F)F)cn4)cn3)(C1)C2)[C@H]1C[C@@H](O)c2cc(Cl)c(F)cc2O1` [Compound 482, (2R,4R)-6-chloro-7-fluoro-4-hydroxy-N-(3-{4-[5-(trifluoromethyl)pyridin-2-yl]-1H-pyrazol-1-yl}bicyclo[1.1.1]pentan-1-yl)-3,4-dihydro-2H-1-benzopyran-2-carboxamide] the value was under 10 nM; for `O=C(COc1ccc(Cl)c(F)c1)NC12CCC(n3cc(OCCCOC(F)(F)F)cn3)(C1)C2` [Compound 630, 2-(4-chloro-3-fluorophenoxy)-N-(4-{4-[3-(trifluoromethoxy)propoxy]-1H-pyrazol-1-yl}bicyclo[2.1.1]hexan-1-yl)acetamide], 50 to 250 nM; for `C[C@@H](COC(F)(F)F)Oc1cnn(C23CC(NC(=O)[C@H]4C[C@@H](O)c5cc(Cl)ccc5O4)(C2)C3)c1` [Compound 439, (2R,4R)-6-chloro-4-hydroxy-N-[3-(4-{[(2S)-1-(trifluoromethoxy)propan-2-yl]oxy}-1H-pyrazol-1-yl)bicyclo[1.1.1]pentan-1-yl]-3,4-dihydro-2H-1-benzopyran-2-carboxamide], under 10 nM.
As to `O=C(NC12CC(c3ccc(-n4cnc(C(F)(F)F)c4)nc3)(C1)C2)[C@H]1C[C@@H](O)c2cc(Cl)ccc2O1` [Compound 559, (2R,4R)-6-chloro-4-hydroxy-N-(3-{6-[4-(trifluoromethyl)-1H-imidazol-1-yl]pyridin-3-yl}bicyclo[1.1.1]pentan-1-yl)-3,4-dihydro-2H-1-benzopyran-2-carboxamide], the EC50 was in the range of 10 to 50 nM.
In the case of `O=C(NC12CC(n3cc(-c4ccc(C(F)(F)F)cn4)cn3)(C1)C2)[C@H]1C[C@H](O)c2cc(Cl)ccc2O1` [Compound 546, (2R,4S)-6-chloro-4-hydroxy-N-(3-{4-[5-(trifluoromethyl)pyridin-2-yl]-1H-pyrazol-1-yl}bicyclo[1.1.1]pentan-1-yl)-3,4-dihydro-2H-1-benzopyran-2-carboxamide], the EC50 was in the range of 10 to 50 nM.
The figure for `CC(=O)N1CC=C(c2cnn(C34CC(NC(=O)[C@H]5C[C@@H](O)c6cc(Cl)ccc6O5)(C3)C4)c2)CC1` [Compound 340, (2R,4R)—N-{3-[4-(1-acetyl-1,2,3,6-tetrahydropyridin-4-yl)-1H-pyrazol-1-yl]bicyclo[1.1.1]pentan-1-yl}-6-chloro-4-hydroxy-3,4-dihydro-2H-1-benzopyran-2-carboxamide] is 50 to 250 nM; for `O=C(NC12CC(n3cc(N4CC[C@@H](OC(F)F)C4)cn3)(C1)C2)[C@H]1C[C@@H](O)c2cc(Cl)ccc2O1` [Compound 318, (2R,4R)-6-chloro-N-(3-{4-[(3R)-3-(difluoromethoxy)pyrrolidin-1-yl]-1H-pyrazol-1-yl}bicyclo[1.1.1]pentan-1-yl)-4-hydroxy-3,4-dihydro-2H-1-benzopyran-2-carboxamide] it is 50 to 250 nM; for `O=C(NC12CC(n3cc(C4CC(COC(F)(F)F)C4)nn3)(C1)C2)[C@H]1C[C@@H](O)c2cc(Cl)ccc2O1` (stereo partly drawn) [Compound 541, (2R,4R)-6-chloro-4-hydroxy-N-[3-(4-{3-[(trifluoromethoxy)methyl]cyclobutyl}-1H-1,2,3-triazol-1-yl)bicyclo[1.1.1]pentan-1-yl]-3,4-dihydro-2H-1-benzopyran-2-carboxamide] it is under 10 nM.
The figure for `O=C(N[C@H]1CC[C@H](n2cc(OCC(F)(F)F)cn2)CC1)[C@H]1C[C@@H](O)c2cc(Cl)ccc2O1` [Compound 524, (2R,4R)-6-chloro-4-hydroxy-N-{(1r,4R)-4-[4-(2,2,2-trifluoroethoxy)-1H-pyrazol-1-yl]cyclohexyl}-3,4-dihydro-2H-1-benzopyran-2-carboxamide] is 10 to 50 nM.
